Results taken from patent US4017485A, “7-Methoxycephalosporin derivatives” (Takeda Chemical Industries, Ltd., priority 1973, dated 1977).
Structures can show the parent of a compound that is named as a salt.

What was measured:
[1] = system: Bacillus subtilis PCI 219; assay: Antimicrobial spectrum, minimal inhibitory concentration; type: cell-based; conditions: PCI219, Tripticase Soy Agar (BBL), pH 6.5, 37° C, read-out: minimal inhibitory concentrations
Experimental: (§1) Based on the above physical and chemical properties as well as the results of other analyses, the chemical structure of this new antibiotic C-2801-X was determined as follows. [drawing 2] 11. Antimicrobial spectrum: Medium: Tripticase Soy Agar (BBL) (manufactured by Becton Dickenson Co., U.S.A.), pH 6.5, minimal inhibitory concentrations mcg/ml., temperature 37° C

[2] = system: Escherichia coli (clinical isolate, antibiotic-susceptible strain); assay: as above; type: cell-based; conditions: Tripticase Soy Agar (BBL), pH 6.5, 37° C, read-out: minimal inhibitory concentrations
Experimental: as §1

Escherichia coli NIHJ = assay: as above; type: cell-based; conditions: Tripticase Soy Agar (BBL), pH 6.5, 37° C, read-out: minimal inhibitory concentrations
Experimental: as §1

[3] = system: Pseudomonas aeruginosa NCTC-10490; assay: as above; type: cell-based; conditions: NCTC10490, Tripticase Soy Agar (BBL), pH 6.5, 37° C, read-out: minimal inhibitory concentrations
Experimental: as §1

[4] = system: Staphylococcus aureus 209 P (chloramphenicol, streptomycin, tetracycline and erythromycin-resistant); assay: as above; type: cell-based; conditions: pH 6.5, read-out: minimal inhibitory concentrations
Experimental: as §1

[5] = system: Staphylococcus aureus 209 P; assay: as above; type: cell-based; conditions: Tripticase Soy Agar (BBL), pH 6.5, 37° C, read-out: minimal inhibitory concentrations
Experimental: as §1

[6] = system: Straphylococcus aureus No.87; assay: as above; type: cell-based; conditions: Tripticase Soy Agar (BBL), pH 6.5, 37° C, read-out: minimal inhibitory concentrations
Experimental: as §1

[7] = system: Aerobacter cloacae IFO-12009; assay: as above; type: cell-based; conditions: Enterobacter cloacae, IFO12009, Tripticase Soy Agar (BBL), pH 6.5, 37° C, read-out: minimal inhibitory concentrations
Experimental: as §1
(§2) (The IFO-numbers given above are the accession numbers at the Institute
(§3) for Fermentation, Osaka, Japan).

[8] = system: Alcaligenes faecalis IFO-13111; assay: as above; type: cell-based; conditions: IFO13111, Tripticase Soy Agar (BBL), pH 6.5, 37° C, read-out: minimal inhibitory concentrations
Experimental: as §1, §2, §3

[9] = system: Bacillus pumilus IFO-3813; assay: as above; type: cell-based; conditions: IFO3813, Tripticase Soy Agar (BBL), pH 6.5, 37° C, read-out: minimal inhibitory concentrations
Experimental: as §1, §2, §3

[10] = system: Klebsiella pneumoniae IFO-3512; assay: as above; type: cell-based; conditions: IFO3512, Tripticase Soy Agar (BBL), pH 6.5, 37° C, read-out: minimal inhibitory concentrations
Experimental: as §1, §2, §3

[11] = system: Proteus mirabilis IFO-3849; assay: as above; type: cell-based; conditions: IFO3849, Tripticase Soy Agar (BBL), pH 6.5, 37° C, read-out: minimal inhibitory concentrations
Experimental: as §1, §2, §3

[12] = system: Proteus morganii IFO-3848; assay: as above; type: cell-based; conditions: Morganella morganii, IFO3848, Tripticase Soy Agar (BBL), pH 6.5, 37° C, read-out: minimal inhibitory concentrations
Experimental: as §1, §2, §3

[13] = system: Proteus vulgaris IFO-3988; assay: as above; type: cell-based; conditions: IFO3988, Tripticase Soy Agar (BBL), pH 6.5, 37° C, read-out: minimal inhibitory concentrations
Experimental: as §1, §2, §3

[14] = system: Pseudomonas aeruginosa IFO-3080; assay: as above; type: cell-based; conditions: IFO3080, Tripticase Soy Agar (BBL), pH 6.5, 37° C, read-out: minimal inhibitory concentrations
Experimental: as §1, §2, §3

[15] = system: Salmonella enteritidis IFO-3313; assay: as above; type: cell-based; conditions: Salmonella enterica, Tripticase Soy Agar (BBL), pH 6.5, 37° C, read-out: minimal inhibitory concentrations
Experimental: as §1, §2, §3

[16] = system: Salmonella typhimurium IFO-12529; assay: as above; type: cell-based; conditions: Salmonella enterica, Tripticase Soy Agar (BBL), pH 6.5, 37° C, read-out: minimal inhibitory concentrations
Experimental: as §1, §2, §3

[17] = system: Escherichia coli (clinical isolate*); assay: as above; type: cell-based; conditions: clinical isolate resistant to tetracycline, streptomycin, kanamycin, lividomycin, aminobenzylpenicillin and sulbenicillin, Tripticase Soy Agar (BBL), pH 6.5, 37° C, read-out: minimal inhibitory concentrations
Experimental: as §1
*The strain is resistant to tetracycline, streptomycin, kanamycin,
lividomycin, aminobenzylpenicillin and sulbenicillin.

[18] = system: Escherichia coli (clinical isolate**); assay: as above; type: cell-based; conditions: clinical isolate resistant to sulfonamide, streptomycin and sulbenicillin, Tripticase Soy Agar (BBL), pH 6.5, 37° C, read-out: minimal inhibitory concentrations
Experimental: as §1
**The strain is resistant to sulfonamide, streptomycin and sulbenicillin.

mice = assay: Acute toxicity test in mice; type: in vivo; conditions: 400 mg. per kilogram of body weight, intravenously
Experimental: In an acute toxicity test in mice, there occurred no death when 400 mg. of Antibiotic C-2801-X monosodium salt per kilogram of body weight was administered intravenously.

Solubility = type: physicochemical
acidity-alkalinity = type: physicochemical
[19] = Stability under strongly acidic and under alkaline conditions; type: physicochemical
[20] = system: Staphylococcus aureaus, Bacillus subtilis, Escherichia coli, Proteus vulgaris, Salmonella typhimurium, aerobic bacteria; assay: Inhibition of bacterial growth (summary statement); type: cell-based; conditions: antibiotic C-2801-X and its salts

## COC(=Cc1ccc(O)c(O)c1)C(=O)OCC1=C(C(=O)O)N2C(=O)C(NC(=O)CCCC(N)C(=O)O)(OC)C2SC1 (stereo not shown) [Antibiotic C-2801-X monosodium salt]
[1]
  MIC: 12.5 µg/mL
[2]
  MIC: 25 µg/mL
Escherichia coli NIHJ
  MIC: 50 µg/mL
[3]
  MIC: > 100 µg/mL
[4]
  MIC: 50 µg/mL
[5]
  MIC: 50 µg/mL
[6]
  MIC: 50 µg/mL
[7]
  MIC: 25 µg/mL
[8]
  MIC: 12.5 µg/mL
[9]
  MIC: 50 µg/mL
[10]
  MIC: 6.25 µg/mL
[11]
  MIC: 3.13 µg/mL
[12]
  MIC: 25 µg/mL
[13]
  MIC: 12.5 µg/mL
[14]
  MIC: > 100 µg/mL
[15]
  MIC: 6.25 µg/mL
[16]
  MIC: 6.25 µg/mL
[17]
  MIC: 25 µg/mL
[18]
  MIC: 25 µg/mL
mice
  death in acute toxicity test: no death
Solubility; in chloroform
  Solubility: Insoluble
Solubility; in ethanol
  Solubility: Soluble
Solubility; in ether
  Solubility: Insoluble
Solubility; in ethyl acetate
  Solubility: Insoluble
Solubility; in methanol
  Solubility: Soluble
Solubility; in water
  Solubility: Soluble
acidity-alkalinity
  acidity-alkalinity: Amphoteric

## COC(=Cc1ccc(O)c(O)c1)C(=O)OCC1=C(C(=O)O)N2C(=O)C(NC(=O)CCCC(N)C(=O)O)(OC)C2SC1 (stereo not shown) [Antibiotic C-2801-X]
Solubility; in water
  Solubility: water-soluble
[19]
  stability: unstable
acidity-alkalinity
  acidity-alkalinity: amphoteric
[20]
  inhibition of growth of bacteria: inhibit the growth
